# Assay results reported in patent publication US10610504B2, “Alpha-cell re-generation combined with conversion to beta cells” (INSERM (INSTITUT NATIONAL DE LA SANTÉ ET DE LA RECHERCHE …, priority 2014, dated 2020).
# How the values were obtained:
# beta-like cells = conditions: upon GABA administration, as mentioned in WO14048788; cited from earlier work
# [1] = system: insulin+ cells (beta cells); assay: Immunohistochemical characterisation of pancreata, GABA and Glu001 combination study; format: in vivo, mice; conditions: 3-month old WT animals treated for a month, daily IP; vs saline
# Protocol: To determine if the combination of GABA and Glu001 could increase beta-cell mass wild type mice were treated with 1) saline, 2) GABA (daily IP injections of 50 μM/40 g mouse), 3) Glu001 (daily IP injections of 4 mg/kg) and 4) GABA+Glu001.
smiles,measurement,setting,value
"NCCCC(=O)O [GABA, gamma-amino butyric acid]",beta-like cell number,beta-like cells,progressive increase
same,insulin+ cell count / beta cell mass,[1],expected increase
